Active and inactive are the calls of the source. The calls are words filed in the database; no cut-off is given here.
What was measured:
Vero = test: Cytotoxicity against African green monkey Vero cells assessed as reduction in cell viability up to 10 uM after 48 hrs by neutral red assay; type: cell-based; conditions: chlorocebus sabaeus
Plasmodium falciparum [1] = test: Antimalarial activity against chloroquine-resistant Plasmodium falciparum W2 infected in red blood cells after 72 hrs by Malstat reagent based LDH assay; type: functional, cell-based; conditions: W2, 72 h
[2] = Resistance index, ratio of IC50 for Plasmodium falciparum W2 infected in red blood cells to IC50 for Plasmodium falciparum D6 infected in red blood cells; type: functional
[3] = Selectivity index, ratio of IC50 for African green monkey Vero cells to IC50 for chloroquine-sensitive Plasmodium falciparum D6 infected in red blood cells; type: toxicity, cell-based; conditions: read-out: Ratio IC50
[4] = Selectivity index, ratio of IC50 for African green monkey Vero cells to IC50 for chloroquine-resistant Plasmodium falciparum W2 infected in red blood cells; type: toxicity, cell-based; conditions: read-out: Ratio IC50
Plasmodium falciparum [5] = test: Antimalarial activity against chloroquine-sensitive Plasmodium falciparum D6 infected in red blood cells after 72 hrs by Malstat reagent based LDH assay; type: functional, cell-based; conditions: D6, 72 h
Plasmodium falciparum [6] = test: Antimalarial activity against chloroquine-resistant Plasmodium falciparum W2 infected in red blood cells up to 10 uM after 72 hrs by Malstat reagent based LDH assay; type: functional, cell-based
Heme [7] = test: Binding affinity to monomeric heme (unknown origin) in DMSO/water solution up to 40 uM at pH 5.6 by titration-based UV-vis spectrophotometric analysis
mu-oxodimeric heme [8] = test: Binding affinity to mu-oxodimeric heme (unknown origin) in aqueous NaOH solution assessed as 1:1 stoichiometry for heme-compound complex at pH 5.8 by Job's plot method
mu-oxodimeric heme [9] = test: Binding affinity to mu-oxodimeric heme (unknown origin) in aqueous NaOH solution up to 15 uM at pH 5.8 by titration-based UV-vis spectrophotometric analysis
Heme [10] = test: Binding affinity to monomeric heme (unknown origin) assessed as mole fraction of compound required to show 1:1 stoichiometry for heme-compound complex at pH 5.6 to 7.4 by Job's plot method

Row | Compound | Activity (Vero) | IC50 (Plasmodium falciparum [1]) | Ratio IC50 [2] | selectivity ratio [3] | selectivity ratio [4] | IC50 (Plasmodium falciparum [5]) | Activity (Plasmodium falciparum [6]) | Activity (Heme [7]) | Activity (mu-oxodimeric heme [8]) | Activity (mu-oxodimeric heme [9]) | Activity (mole fraction) (Heme [10])
1 | Cc1cc(N(CCNc2ccnc3cc(Cl)ccc23)Cc2ccco2)nc(N2CCCC2)n1 | Non-Toxic | 163 nM | 3.26 | > 200 | > 61.3 | 50 nM | – | – | – | – | –
2 | Cc1cc(N2CCCCC2)nc(N(CCCNc2ccnc3cc(Cl)ccc23)Cc2ccco2)n1 | Non-Toxic | 197 nM | 3.33 | > 169 | > 50.8 | 59 nM | – | – | – | – | –
3 | Cc1cc(N(CCCNc2ccnc3cc(Cl)ccc23)Cc2ccco2)nc(N2CCCC2)n1 | Non-Toxic | 76 nM | 1.72 | > 222 | > 132 | 44 nM | – | – | – | – | –
4 | CCc1nc(N)nc(N)c1-c1ccc(Cl)cc1 [PYRIMETHAMINE] | Non-Toxic | – | – | > 1110 | – | – | inactive | – | – | – | –
5 | CCN1CCN(c2cc(C)nc(N(CCNc3ccnc4cc(Cl)ccc34)Cc3ccco3)n2)CC1 | Non-Toxic | 47 nM | 1.11 | > 238 | > 213 | 42 nM | – | – | – | – | –
6 | Cc1cc(N2CCOCC2)nc(N(CCNc2ccnc3cc(Cl)ccc23)Cc2ccco2)n1 | Non-Toxic | 63 nM | 1.46 | > 233 | > 159 | 43 nM | – | – | – | – | –
7 | Cc1cc(N(CCNc2ccnc3cc(Cl)ccc23)Cc2ccco2)nc(Cl)n1 | Non-Toxic | 75 nM | 1.17 | > 156 | > 133 | 64 nM | – | – | – | – | –
8 | C[C@@H]1CC[C@H]2[C@@H](C)C(=O)O[C@@H]3O[C@@]4(C)CC[C@@H]1[C@]32OO4 [ARTEMISININ] | Non-Toxic | 23 nM | 0.511 | > 222 | 435 | 45 nM | – | – | – | – | –
9 | Cc1cc(N2CCCCC2)nc(N(CCNc2ccnc3cc(Cl)ccc23)Cc2ccco2)n1 | Non-Toxic | 204 nM | 4.63 | > 222 | > 49 | 44 nM | – | – | – | – | –
10 | Cc1cc(Cl)nc(N(CCCNc2ccnc3cc(Cl)ccc23)Cc2ccco2)n1 | Non-Toxic | 506 nM | 1.5 | > 29.7 | > 19.8 | 337 nM | – | – | – | – | –
11 | Cc1cc(N(CCNc2ccnc3cc(Cl)ccc23)Cc2ccco2)nc(N2CCCCC2)n1 | Non-Toxic | 199 nM | 3.26 | > 164 | > 50.2 | 61 nM | – | – | – | – | –
12 | Cc1cc(N(CCCNc2ccnc3cc(Cl)ccc23)Cc2ccco2)nc(N2CCCCC2)n1 | Non-Toxic | 72 nM | 1.67 | > 233 | > 139 | 43 nM | – | – | – | – | –
13 | CCN1CCN(c2cc(C)nc(N(CCCNc3ccnc4cc(Cl)ccc34)Cc3ccco3)n2)CC1 | Non-Toxic | 39 nM | 0.975 | > 250 | > 256 | 40 nM | – | – | – | – | –
14 | Cc1cc(N2CCN(C)CC2)nc(N(CCNc2ccnc3cc(Cl)ccc23)Cc2ccco2)n1 | Non-Toxic | 42 nM | 1 | > 238 | > 238 | 42 nM | – | – | – | – | –
15 | Cc1cc(N(CCCNc2ccnc3cc(Cl)ccc23)Cc2ccco2)nc(N2CCOCC2)n1 | Non-Toxic | 257 nM | 5.58 | > 217 | > 38.9 | 46 nM | – | – | – | – | –
16 | Cc1cc(N(CCNc2ccnc3cc(Cl)ccc23)Cc2ccco2)nc(N2CCOCC2)n1 | Non-Toxic | 122 nM | 2.21 | > 182 | > 82 | 55 nM | – | – | – | – | –
17 | Cc1cc(N(CCNc2ccnc3cc(Cl)ccc23)Cc2ccco2)nc(N2CCN(C)CC2)n1 | Non-Toxic | 41 nM | 1 | > 244 | > 244 | 41 nM | – | – | – | – | –
18 | Cc1cc(N2CCOCC2)nc(N(CCCNc2ccnc3cc(Cl)ccc23)Cc2ccco2)n1 | Non-Toxic | 167 nM | 3.15 | > 189 | > 59.9 | 53 nM | – | – | – | – | –
19 | Cc1cc(N2CCCC2)nc(N(CCNc2ccnc3cc(Cl)ccc23)Cc2ccco2)n1 | Non-Toxic | 194 nM | 3.23 | > 167 | > 51.5 | 60 nM | – | – | – | – | –
20 | Cc1cc(N2CCN(C)CC2)nc(N(CCCNc2ccnc3cc(Cl)ccc23)Cc2ccco2)n1 | Non-Toxic | 48 nM | 0.979 | > 204 | > 208 | 49 nM | – | – | – | – | –
21 | Cc1cc(N(CCCNc2ccnc3cc(Cl)ccc23)Cc2ccco2)nc(N2CCN(C)CC2)n1 | Non-Toxic | 47 nM | 1.04 | > 206 | > 213 | 45 nM | – | – | – | – | –
22 | CCN(CC)CCCC(C)Nc1ccnc2cc(Cl)ccc12 (stereo not drawn) [CHLOROQUINE] | Non-Toxic | – | – | – | – | – | – | – | – | – | –
23 | CCN1CCN(c2nc(C)cc(N(CCCNc3ccnc4cc(Cl)ccc34)Cc3ccco3)n2)CC1 | Non-Toxic | 43 nM | 0.977 | > 222 | > 233 | 44 nM | – | – | – | – | –
24 | Cc1cc(Cl)nc(N(CCNc2ccnc3cc(Cl)ccc23)Cc2ccco2)n1 | Non-Toxic | 62 nM | 0.775 | > 125 | > 161 | 80 nM | – | – | – | – | –
25 | Cc1cc(N(CCCNc2ccnc3cc(Cl)ccc23)Cc2ccco2)nc(Cl)n1 | Non-Toxic | 454 nM | 4.2 | > 92.6 | > 22 | 108 nM | – | – | – | – | –
26 | Cc1cc(N2CCCC2)nc(N(CCCNc2ccnc3cc(Cl)ccc23)Cc2ccco2)n1 | Non-Toxic | 162 nM | 3.17 | > 196 | > 61.7 | 51 nM | – | – | – | – | –
27 | CCN1CCN(c2nc(C)cc(N(CCNc3ccnc4cc(Cl)ccc34)Cc3ccco3)n2)CC1 | Non-Toxic | 40 nM | 1.05 | > 263 | > 250 | 38 nM | – | Active | Active | Active | 0.5

Source: ChEMBL document CHEMBL4004859, “Synthesis, antimalarial activity, heme binding and docking studies of N-substituted 4-aminoquinoline-pyrimidine molecular hybrids” (Eur J Med Chem, 2017)
